Laboratory results published in US20130261178A1, “PHENOXYPROPANOL DERIVATIVES AND THEIR USE IN TREATING CARDIAC AND CARDIOVASCULAR DISEASES” (priority 2010, published 2013).
Where a name gives a salt, the structure may show the parent alone.

Columns and labels:
beta1-adrenoceptor = beta1-adrenoceptor (Homo sapiens, UniProt P08588); test: 3H-CGP12177 whole-cell binding, CHO cells expressing human beta1-adrenoceptor; set-up: expressed in transfected cells; host or cells: CHO cells; conditions: 3H-CGP 12177 whole cell binding, mean ± s.e.mean; for Kd: log KD, read-out: Beta 1 Log KD (converted)
Source text: (§1) The selectivity of a ligand is given by the ratio of beta-1 to beta-2 KD.

human beta2-adrenoceptor = target: T1, human beta2-adrenoceptor (Homo sapiens, UniProt P07550); test: 3H-CGP12177 whole-cell binding, CHO cells expressing human beta2-adrenoceptor; conditions: 3H-CGP 12177 whole cell binding, mean ± s.e.mean; for Kd: log KD, read-out: Beta 2 Log KD (converted)
T1 construct: expressed in transfected cells; host or cells: CHO cells
Source text: as §1

T1 sequence (P07550 whole entry): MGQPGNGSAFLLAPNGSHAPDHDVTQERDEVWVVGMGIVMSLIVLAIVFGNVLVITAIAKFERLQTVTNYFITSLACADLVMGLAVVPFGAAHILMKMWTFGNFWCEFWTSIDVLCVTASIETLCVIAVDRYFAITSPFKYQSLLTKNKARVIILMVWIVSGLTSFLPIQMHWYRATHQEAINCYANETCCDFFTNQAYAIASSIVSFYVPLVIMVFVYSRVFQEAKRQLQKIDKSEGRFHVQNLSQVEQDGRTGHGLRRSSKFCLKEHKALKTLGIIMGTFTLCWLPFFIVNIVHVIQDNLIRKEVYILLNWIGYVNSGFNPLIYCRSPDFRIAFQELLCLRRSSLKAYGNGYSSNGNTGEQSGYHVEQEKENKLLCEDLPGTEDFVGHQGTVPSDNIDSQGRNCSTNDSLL
Chain of beta1-adrenoceptor (P08588 whole entry): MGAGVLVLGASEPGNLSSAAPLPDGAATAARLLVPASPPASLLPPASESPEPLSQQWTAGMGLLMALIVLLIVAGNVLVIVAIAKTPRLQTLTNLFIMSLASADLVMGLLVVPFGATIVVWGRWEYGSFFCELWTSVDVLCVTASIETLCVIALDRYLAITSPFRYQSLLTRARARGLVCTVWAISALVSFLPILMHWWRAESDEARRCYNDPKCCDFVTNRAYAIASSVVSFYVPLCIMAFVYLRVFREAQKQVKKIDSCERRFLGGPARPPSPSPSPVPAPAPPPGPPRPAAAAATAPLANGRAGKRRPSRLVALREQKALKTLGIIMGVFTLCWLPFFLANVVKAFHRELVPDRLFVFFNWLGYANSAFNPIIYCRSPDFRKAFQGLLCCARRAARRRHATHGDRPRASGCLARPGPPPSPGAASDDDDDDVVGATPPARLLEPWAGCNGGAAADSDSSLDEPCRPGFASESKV

Row | Structure (SMILES) | Kd (beta1-adrenoceptor) [nM] | Kd (human beta2-adrenoceptor) [nM] | Beta 2 Log KD (human beta2-adrenoceptor) | Beta 1 Log KD (beta1-adrenoceptor)
1 | CCOCCOc1ccc(OCC(O)CNCCNC(=O)Nc2ccc(OCc3ccccc3)cc2)cc1 (stereo not drawn) [45d] | 91.2 |  |  | 
2 | CC(C)OCCOc1ccc(OCC(O)CNCCNC(=O)Nc2cccc(Cl)c2)cc1 (stereo not drawn) [46k, 1-(2-(3-(4-(2-(Isopropyloxy)ethoxy)phenoxy)-2-hydroxypropylamino)ethyl)-3-(3-chlorophenyl)urea] | 21.4 | 5130 |  | 
3 | CC(C)OCCOc1ccc(OCC(O)CNCCNC(=O)Nc2ccc(O)cc2)cc1 (stereo not drawn) [46l, 1-(2-(3-(4-(2-(Isopropyloxy)ethoxy)phenoxy)-2-hydroxypropylamino)ethyl)-3-(4-hydroxyphenyl)urea] | 58.9 | 15500 |  | 
4 | CCCOCCOc1ccc(OCC(O)CNCCNC(=O)Nc2cccc(Cl)c2)cc1 (stereo not drawn) [46m, 1-(2-(3-(4-(2-(Propyloxy)ethoxy)phenoxy)-2-hydroxypropylamino)ethyl)-3-(3-chlorophenyl)urea] | 16.2 | 3720 |  | 
5 | CCCOCCOc1ccc(OCC(O)CNCCNC(=O)Nc2ccc(O)cc2)cc1 (stereo not drawn) [46n, 1-(2-(3-(4-(2-(Propyloxy)ethoxy)phenoxy)-2-hydroxypropylamino)ethyl)-3-(4-hydroxyphenyl)urea] | 37.2 | 13500 |  | 
6 | O=C(NCCNCC(O)COc1ccc(OCCOC2CC2)cc1)Nc1cccc(Cl)c1 (stereo not drawn) [46o, 1-(3-Chlorophenyl)-3-(2-(3-(4-(2-cyclopropoxyethoxy)phenoxy)-2-hydroxypropylamino)ethyl)urea] | 13.8 | 2950 |  | 
7 | O=C(NCCNCC(O)COc1ccc(OCCOC2CC2)cc1)Nc1ccc(O)cc1 (stereo not drawn) [46p, 1-(2-(3-(4-(2-Cyclopropoxyethoxy)phenoxy)-2-hydroxypropylamino)ethyl)-3-(4-hydroxyphenyl)urea] | 63.1 | 25700 |  | 
8 | O=C(NCCNCC(O)COc1ccc(OCCOC2CCCC2)cc1)Nc1cccc(C(=O)O)c1 (stereo not drawn) [47aa, 3-(3-(2-(3-(4-(2-(Cyclopentyloxy)ethoxy)phenoxy)-2-hydroxypropylamino)ethyl)ureido)benzoic acid hydrochloride] | 77.6 | 43650 ± 400 |  | 
9 | O=C(NCCNCC(O)COc1ccc(OCCOC2CCCC2)cc1)Nc1ccc(C(=O)O)cc1 (stereo not drawn) [47bb, 4-(3-(2-(3-(4-(2-(Cyclopentyloxy)ethoxy)phenoxy)-2-hydroxypropylamino)ethyl)ureido)benzoic acid hydrochloride] | 105 | 43700 ± 701 |  | 
10 | O=C(NCCNCC(O)COc1ccc(OCCOC2CCCC2)cc1)Nc1ccc([N+](=O)[O-])cc1 (stereo not drawn) [47w, 1-(2-(3-(4-(2-(Cyclopentyloxy)ethoxy)phenoxy)-2-hydroxypropylamino)ethyl)-3-(4-nitrophenyl)urea] | 18.6 | 1780 |  | 
11 | O=C(NCCNCC(O)COc1ccc(OCCOC2CCCC2)cc1)Nc1ccc(OCCF)cc1 (stereo not drawn) [47x, 1-(2-(3-(4-(2-(Cyclopentyloxy)ethoxy)phenoxy)-2-hydroxypropylamino)ethyl)-3-(4-(2-fluoroethoxy)phenyl)urea] | 17.8 | 1820 |  | 
12 | COC(=O)c1cccc(NC(=O)NCCNCC(O)COc2ccc(OCCOC3CCCC3)cc2)c1 (stereo not drawn) [47y, Methyl 3-(3-(2-(3-(4-(2-(cyclopentyloxy)ethoxy)phenoxy)-2-hydroxypropylamino)ethyl)ureido)benzoate] | 12.3 | 1100 |  | 
13 | COC(=O)c1ccc(NC(=O)NCCNCC(O)COc2ccc(OCCOC3CCCC3)cc2)cc1 (stereo not drawn) [47z, Methyl 4-(3-(2-(3-(4-(2-(cyclopentyloxy)ethoxy)phenoxy)-2-hydroxypropylamino)ethyl)ureido)benzoate] | 43.7 | 2040 |  | 
14 | COc1ccc(NC(=O)NCCNCC(O)COc2ccc(OCCOC3CCCC3)cc2)cc1Cl (stereo not drawn) [54b, 1-(3-Chloro-4-methoxyphenyl)-3-(2-(3-(4-(2-(cyclopentyloxy)ethoxy)phenoxy)-2-hydroxypropylamino)ethyl)urea] | 19.5 | 1510 |  | 
15 | O=C(NCCNCC(O)COc1ccc(OCCOC2CCCC2)cc1)Nc1ccc(O)c(Cl)c1 (stereo not drawn) [54c, 1-(3-Chloro-4-hydroxyphenyl)-3-(2-(3-(4-(2-(cyclopentyloxy)ethoxy)phenoxy)-2-hydroxypropylamino)ethyl)urea] | 7.24 | 1020 |  | 
16 | Nc1ccccc1NC(=O)NCCNCC(O)COc1ccc(OCCOC2CCCC2)cc1 (stereo not drawn) [60a] | 75.9 | 2190 |  | 
17 | Nc1cccc(NC(=O)NCCNCC(O)COc2ccc(OCCOC3CCCC3)cc2)c1 (stereo not drawn) [60b] | 20 | 4170 |  | 
18 | Nc1ccc(NC(=O)NCCNCC(O)COc2ccc(OCCOC3CCCC3)cc2)cc1 (stereo not drawn) [60c] | 29.5 | 3630 |  | 
19 | CC(=O)Oc1ccc(C(=O)NCCNCC(O)COc2ccc(OCCOC3CCCC3)cc2)cc1 (stereo not drawn) [62e, 4-(2-(3-(4-(2-(Cyclopentyloxy)ethoxy)phenoxy)-2-hydroxypropylamino)ethylcarbamoyl)phenyl acetate] |  |  | −6.27 ± 0.03 | −8.42 ± 0.02
20 | COc1cc(C(=O)NCCNCC(O)COc2ccc(OCCOC3CCCC3)cc2)ccc1O (stereo not drawn) [62f] | 4.9 | 1410 |  | 
21 | Cc1cccc(CC(=O)NCCNCC(O)COc2ccc(OCCOC3CCCC3)cc2)c1 (stereo not drawn) [62q] | 26.9 | 302 |  | 
22 | COc1ccc(CC(=O)NCCNCC(O)COc2ccc(OCCOC3CCCC3)cc2)cc1 (stereo not drawn) [62t] | 9.77 | 91.2 |  | 
23 | O=C(Cc1ccccc1O)NCCNCC(O)COc1ccc(OCCOC2CCCC2)cc1 (stereo not drawn) [62u] | 19.1 | 138 |  | 
24 | CC(=O)Oc1ccc(CC(=O)NCCNCC(O)COc2ccc(OCCOC3CCCC3)cc2)cc1 (stereo not drawn) [62w, 4-(2-(2-(3-(4-(2-(Cyclopentyloxy)ethoxy)phenoxy)-2-hydroxypropylamino)ethylamino)-2-oxoethyl)phenyl acetate] |  |  | −6.59 ± 0.02 | −8.09 ± 0.03
25 | O=C(NCCNC[C@@H](O)COc1ccc(OCCOC2CCCC2)cc1)Nc1cccc(Cl)c1 [(R)-47l, (R)-1-(2-(3-(4-(2-(Cyclopentyloxy)ethoxy)phenoxy)-2-hydroxypropylamino)ethyl)-3-(3-chlorophenyl)urea] | 186 | 5890 |  | 

The next lines start with results.

Row | Kd (beta1-adrenoceptor) [nM] | Kd (human beta2-adrenoceptor) [nM] | Structure (SMILES) | Beta 2 Log KD (human beta2-adrenoceptor) | Beta 1 Log KD (beta1-adrenoceptor)
26 | 74.1 | 776 | OC(CNCCOc1cccc(Cl)c1)COc1ccc(OCCOC2CCCC2)cc1 (stereo not drawn) [65a] |  | 
27 | 107 | 741 | OC(CNCCOc1ccccc1-c1ccccc1)COc1ccc(OCCOC2CCCC2)cc1 (stereo not drawn) [65c] |  | 
28 | 398 | 79400 | OC(CNCCOc1ccc(-c2ccccc2)cc1)COc1ccc(OCCOC2CCCC2)cc1 (stereo not drawn) [65d] |  | 
29 | 5.75 | 204 | Oc1ccc(OCCNCC(O)COc2ccc(OCCOC3CCCC3)cc2)cc1 (stereo not drawn) [65e] |  | 
30 | 34.7 | 794 | Oc1ccc(OCCCNCC(O)COc2ccc(OCCOC3CCCC3)cc2)cc1 (stereo not drawn) [65f] |  | 
31 | 49 | 1050 | NC(=O)c1ccccc1OCCNCC(O)COc1ccc(OCCOC2CCCC2)cc1 (stereo not drawn) [67a] |  | 
32 | 18.2 | 1000 | NC(=O)c1cccc(OCCNCC(O)COc2ccc(OCCOC3CCCC3)cc2)c1 (stereo not drawn) [67b] |  | 
33 | 3.31 | 851 | NC(=O)c1ccc(OCCNCC(O)COc2ccc(OCCOC3CCCC3)cc2)cc1 (stereo not drawn) [67c] |  | 
34 | 9.33 | 1020 | OC(CNCCOc1ccc(F)cc1)COc1ccc(OCCOC2CCCC2)cc1 (stereo not drawn) [67d] |  | 
35 | 8.91 | 794 | COc1ccc(OCCNCC(O)COc2ccc(OCCOC3CCCC3)cc2)cc1 (stereo not drawn) [67e] |  | 
